{
  "source": "patent US9018248B2",
  "about": "“Fatty acid derivatives of catechins and methods of their use” (Genesis Group Inc., priority 2010, dated 2015)",
  "key": {"[1]": {"assay": "ORAC (Oxygen Radical Absorbance Capacity) assay for lipophilic antioxidants", "settings": "samples 0.25 μM, 7% RMCD, fluorescein probe", "protocol": "An ORAC (Oxygen Radical Absorbance Capacity) assay was carried out using a Fluostar Optima plate reader (BMG Labtech, Durham, N.C.) equipped with an incubator and two injector pumps. A modified method for lipophilic antioxidants was followed, in which randomly methylated cyclodextrin (RMCD) was used as water solubility enhancer, as described by Huang et al, J. Agric. Food Chem., 2002, 50, 1815-1821. Trolox standards (6.25-50 μM) and samples (0.25 μM) were dissolved in acetone/water (1:1, v/v) containing 7% RMCD. Fluorescein and […] [2,2′-azobis(2-aminopropane)dihydrochloride] were used as the probe and radical generator, respectively. Twenty microliters of trolox standard or test compound solutions (7% RMCD used as a control) were added into each well of a 96-well black microplate, followed by addition of fluorescein. The plate was incubated at 37° C. for 15 min and then AAPH in buffer was injected into the wells. The conditions used were as follows: 0.3 s position delay, 8 s orbital shaking before each cycle with 4 mm width, 210 s cycle time, and 25 cycles. Fluorescence was measured at an excitation wavelength of 485 nm and emission of 520 nm. A standard curve was plotted and ORAC values for test compounds were obtained as mol of trolox equivalents (TE) per mol of test compound. (3b) Reducing Power The reducing power of EGCG and its derivatives (compounds 1a-1c) was determined according to Oyaizu (1986). One milliliter of test compounds (1 mM in 95% ethanol) was mixed with 2.5 ml of phosphate buffer solution (PBS, 0.2 M, pH 6.6) and 2.5 ml of a 1% solution of potassium ferricyanide, K3Fe(CN)6. The mixture was incubated at 50° C. for 20 min. […] The content was mixed well and the absorbance was recorded at 700 nm. Higher absorbance of the reaction mixture indicates greater reducing power. […] (3c) Metal Chelation The metal chelation capacity was measured following a procedure by Decker E. A. et al., J. Agric. […] The absorbance was measured afterwards at 562 nm. A blank without ferrozine was run for each compound, since the antioxidant-Fe^2+ complex gives a colour that might interfere with the absorbance reading. Metal chelation capacity was calculated using the following equation: % chelation=[1−(Abs.sample−Abs.blank)/Abs.control]×100 where, control was devoid of test compounds, while blank contained no ferrozine. (3d) DPPH Antioxidant activity of the lipophilic EGCG derivatives was ALSO evaluated as DPPH (1,1-diphenyl-2-picrylhydrazyl) radical scavenging capacity using EGCG as the reference. DPPH scavenging capacity of test compounds was determined by EPR (electron paramagnetic resonance) according to Madhujith and Shahidi (16) with slight modifications. […] The spectrum was recorded after 1 min. […]"}, "[2]": {"test_system": "Human LDL", "assay": "Inhibition of copper-induced LDL-cholesterol oxidation", "settings": "CuSO4-induced, 37° C., 22 hours", "protocol": "Human LDL solution was dialyzed overnight in PBS (10 mM, 0.15M NaCl, pH 7.4) at 4° C. under nitrogen blanket prior to the test. Sample solutions were prepared by dissolving the test compounds in ethanol at concentration of 500 μM. Ten microliters of sample solutions were transferred into a set of Eppendorf tubes, and the solvent was evaporated to dryness under a nitrogen stream. To each tube 0.1 ml of PBS was added, followed by vortexing for 1 min. An aliquot (0.8 ml) of the dialyzed and diluted LDL solution (0.125 mg/ml) was added to each tube, and the contents were mixed well and incubated at 37° C. for 15 min. The reaction was initiated by adding 0.1 ml of CuSO4 (20 μM, previously incubated). A blank containing only sample without LDL or CuSO4 was prepared for each test compound. After incubation of the reaction mixture at 37° C. for 22 hours, the conjugated dienes formed as a result of oxidation were measured spectrophotometrically at 234 nm. […] All absorbances for samples were blank-corrected. Discussion"}, "[3]": {"assay": "Oil/water emulsion (β-carotene/linoleate) bleaching", "settings": "test compounds 1 mM in ethanol, 50° C., 105 min", "protocol": "Ten milligrams of β-carotene were dissolved in 10 ml of chloroform. A 1.2 ml portion of this solution was transferred into a round-bottom flask containing 40 mg of linoleic acid and 400 mg of Tween 40. A blank without β-carotene was also prepared (40 mg of linoleic acid+400 mg of Tween 40). After removal of chloroform under a nitrogen stream, 100 ml of oxygenated distilled water were added to the flask and the mixture was stirred vigorously. Aliquots (4.5 ml) of the above emulsion were transferred into a series of tubes containing 0.5 ml of test compounds (1 mM in ethanol) or ethanol as control. A mixture of blank (without β-carotene) was prepared for each sample. The tubes were vortexed and the zero time absorbance was read immediately at 470 nm. The tubes are kept in a water bath at 50° C. with gentle shaking, and measurement of absorbance was continued over a 105-min period at intervals of 15 min. Blank-corrected absorbance was obtained and plotted against time for kinetic curve of β-carotene bleaching. Antioxidant activity (AA) of test compounds in protecting β-carotene/linoleic acid oxidation was calculated using the following equation. AA %=[1−(A0−At)/(A0^o−At^o)]×100 where, A0 and At are corrected absorbance values for test samples measured at zero time and after incubation, respectively; while A0^o and At^o are corrected absorbance values for control at zero time and after incubation, respectively."}},
  "note": "Marks after values point to notes of the source that are not given here.",
  "data": [
    {"compound": "CCCCCCCCCCCCCCCCCC(=O)Oc1cc(C(=O)OC2Cc3c(O)cc(O)cc3OC2c2cc(OC(=O)CCCCCCCCCCCCCCCCC)c(O)c(OC(=O)CCCCCCCCCCCCCCCCC)c2)cc(OC(=O)CCCCCCCCCCCCCCCCC)c1O", "note": "(stereo not drawn) [Compound 1a, EGCG stearate]", "values": [
      {"measurement": "ORAC", "setting": "[1]", "value": 51.56, "unit": "mol trolox eq./mol"},
      {"measurement": "Inhibition of LDL-cholesterol oxidation (conjugated diene formation)", "setting": "[2]", "value": 16.33, "unit": "%"},
      {"measurement": "Inhibition of β-carotene bleaching", "setting": "[3]", "value": "16.8 ± 4.19^b %"}
    ]},
    {"compound": "CCC=CCC=CCC=CCC=CCC=CCCCC(=O)Oc1cc(C(=O)OC2Cc3c(O)cc(O)cc3OC2c2cc(OC(=O)CCCC=CCC=CCC=CCC=CCC=CCC)c(O)c(OC(=O)CCCC=CCC=CCC=CCC=CCC=CCC)c2)cc(OC(=O)CCCC=CCC=CCC=CCC=CCC=CCC)c1O", "note": "(stereo not drawn) [Compound 1b]", "values": [
      {"measurement": "ORAC", "setting": "[1]", "value": 81.52, "unit": "mol trolox eq./mol"},
      {"measurement": "Inhibition of LDL-cholesterol oxidation (conjugated diene formation)", "setting": "[2]", "value": 11.80, "unit": "%"},
      {"measurement": "Inhibition of β-carotene bleaching", "setting": "[3]", "value": "28.0 ± 0.17^a %"}
    ]},
    {"compound": "CCC=CCC=CCC=CCC=CCC=CCC=CCCC(=O)Oc1cc(C(=O)OC2Cc3c(O)cc(O)cc3OC2c2cc(OC(=O)CCC=CCC=CCC=CCC=CCC=CCC=CCC)c(O)c(OC(=O)CCC=CCC=CCC=CCC=CCC=CCC=CCC)c2)cc(OC(=O)CCC=CCC=CCC=CCC=CCC=CCC=CCC)c1O", "note": "(stereo not drawn) [Compound 1c]", "values": [
      {"measurement": "ORAC", "setting": "[1]", "value": 84.70, "unit": "mol trolox eq./mol"},
      {"measurement": "Inhibition of LDL-cholesterol oxidation (conjugated diene formation)", "setting": "[2]", "value": 8.18, "unit": "%"},
      {"measurement": "Inhibition of β-carotene bleaching", "setting": "[3]", "value": "32.1 ± 4.48^a %"}
    ]},
    {"compound": "O=C(O[C@@H]1Cc2c(O)cc(O)cc2O[C@@H]1c1cc(O)c(O)c(O)c1)c1cc(O)c(O)c(O)c1", "note": "[EGCG, Epigallocatechin gallate, reference compound]", "values": [
      {"measurement": "ORAC", "setting": "[1]", "value": 14.97, "unit": "mol trolox eq./mol"},
      {"measurement": "Inhibition of LDL-cholesterol oxidation (conjugated diene formation)", "setting": "[2]", "value": 6.53, "unit": "%"},
      {"measurement": "Inhibition of β-carotene bleaching", "setting": "[3]", "value": "7.90 ± 0.64^c %"}
    ]}
  ]
}
